We go through 22 molecules from PubChem BioAssay AID200 (DTP/NCI, 2004).

Several values for one entry are separate records, joined by “and”; a condition that tells them apart may be missing. Equal values may be shown once. Inconclusive results and toxic doses are left out. Where a SMILES comes first, the peptide text is derived from it.

The assay deals with B6C3F1 mice, B16 melanoma ip, median survival T/C. The assay is described as follows: NCI In Vivo Anticancer Drug Screen. Data for tumor model B16 Melanoma (intraperitoneal) in B6C3F1 mice. The following applies: endpoint: median survival time, schedule: Q01DX009 (ip), higher = longer survival. Summed up:
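Tumor-bearing mice received test compound; a separate group got vehicle only. Survival was then compared, with results reported as treated over control.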

Where [1] appears, read: dose: 50.0 mg/kg/injection, vehicle: saline with Tween-80.
Setting [2] is: dose: 100.0 mg/kg/injection, vehicle: saline with Tween-80.
Where [3] appears, read: dose: 6.25 mg/kg/injection, vehicle: saline with Tween-80.
[4] abbreviates: dose: 12.5 mg/kg/injection, vehicle: saline with Tween-80.
The mark [5] stands for this setting: dose: 12.5 mg/kg/injection, vehicle: saline.
The mark [6] stands for this setting: dose: 25.0 mg/kg/injection, vehicle: saline with Tween-80.
Setting [7] is: dose: 25.0 mg/kg/injection, vehicle: saline.
Setting [8] is: dose: 50.0 mg/kg/injection, vehicle: saline.
The mark [9] stands for this setting: dose: 100.0 mg/kg/injection, vehicle: saline.
[10] abbreviates: dose: 200.0 mg/kg/injection, vehicle: saline with Tween-80.
The mark [11] stands for this setting: dose: 200.0 mg/kg/injection, vehicle: saline.
[12] abbreviates: dose: 400.0 mg/kg/injection, vehicle: saline with Tween-80.
[13] abbreviates: dose: 25.0 mg/kg/injection, vehicle: Klucel (hydroxypropylcellulose) (HPC).

`Cc1c2ccccc2c(C)c2c1ccc1ccccc12`: the T/C was 99 % of control (dose: 1.0 mg/kg/injection, vehicle: saline with Tween-80); 106 % of control (dose: 2.0 mg/kg/injection, vehicle: saline with Tween-80); 122 % of control (dose: 4.0 mg/kg/injection, vehicle: saline with Tween-80); 113 % of control (dose: 8.0 mg/kg/injection, vehicle: saline with Tween-80); 86 % of control (dose: 16.0 mg/kg/injection, vehicle: saline with Tween-80).
With `O=C(CCl)NC(Cc1ccc(O)cc1)C(=O)O` (stereo not drawn), the T/C by setting is: under setting [1], 93 % of control; under setting [2], 87 % of control.
With `OC1COC(c2ccccc2)OC1C1OC(c2ccccc2)OC2COC(c3ccccc3)OC21` (stereo not drawn), the T/C runs as follows: (dose: 3.12 mg/kg/injection, vehicle: saline with Tween-80) 93 % of control; under setting [3], 93 % of control; under setting [4], 91 % of control.
As for `CC1(C)OC1CS(=O)c1ccccc1` (stereo not drawn), the T/C is, setting by setting: under setting [4], 96 % of control; under setting [5], 93 % of control; under setting [6], 99 % of control; under setting [7], 98 % of control; under setting [1], 102 % of control; under setting [8], 96 % of control. For the same molecule, the T/C by setting is: under setting [2], 95 % of control; under setting [9], 98 % of control; under setting [10], 90 % of control; under setting [11], 98 % of control; under setting [12], 89 % of control; (dose: 400.0 mg/kg/injection, vehicle: saline) 93 % of control.
Consider `CNC[C@@H](O)c1ccc(O)c(O)c1`, for which the T/C is, setting by setting: (dose: 0.75 mg/kg/injection, vehicle: suspension in saline) 114 % of control; (dose: 1.5 mg/kg/injection, vehicle: suspension in saline) 115 % of control; (dose: 3.0 mg/kg/injection, vehicle: suspension in saline) 99 % of control.
For the molecule `CN(C)CCC(C#N)(CCC1CCCCC1)c1ccccc1` (stereo not drawn), the T/C runs as follows: (dose: 10.0 mg/kg/injection, vehicle: saline) 95 % of control; (dose: 20.0 mg/kg/injection, vehicle: saline) 95 % of control; (dose: 40.0 mg/kg/injection, vehicle: saline) 92 % of control.
Take `N[C@@H](C[C@H]1CCC(=O)[C@@H]2O[C@H]12)C(=O)O`: the T/C runs as follows: (dose: 25.0 mg/kg/injection, vehicle: saline + alcohol) 99 % of control; (dose: 50.0 mg/kg/injection, vehicle: saline + alcohol) 110 % of control; (dose: 400.0 mg/kg/injection, vehicle: saline + alcohol) 155 % of control.
Consider `Nc1nc(Cc2ccccc2)c(CCCNc2ccccc2)c(=O)[nH]1`, for which the T/C under setting [3] was 101 % of control, the T/C under setting [4] is 109 % of control, the T/C under setting [6] is 92 % of control and the T/C under setting [1] is 86 % of control.
Consider `COc1cc(NC(N)=O)ccc1Nc1c2ccc(N)cc2nc2cc(N)ccc12`, for which the T/C (dose: 0.5 mg/kg/injection, vehicle: saline) was 93 % of control; the T/C (dose: 1.0 mg/kg/injection, vehicle: saline) is 111 % of control; the T/C (dose: 2.0 mg/kg/injection, vehicle: saline) is 101 % of control; the T/C (dose: 4.0 mg/kg/injection, vehicle: saline) was 86 % of control; the T/C (dose: 8.0 mg/kg/injection, vehicle: saline) is 93 % of control; the T/C (dose: 16.0 mg/kg/injection, vehicle: saline) was 98 % of control.
For `CC(=O)Nc1cscc1NC(C)=O`, the T/C runs as follows: under setting [6], 94 % of control and 102 % of control; under setting [1], 111 % of control and 100 % of control; under setting [2], 94 % of control; under setting [10], 108 % of control and 99 % of control; under setting [12], 96 % of control and 104 % of control.
Consider `CN(C)CCNc1ccc(NCCN(C)C)c2c1C(=O)c1ccccc1C2=O`, for which, for the setting “dose: 20.0 mg/kg/injection, vehicle: distilled water + Tween-80”, the T/C is 117 % of control.
For `CCNC(=O)[B-][N+](C)(C)C`, the T/C was 93 % of control (dose: 12.5 mg/kg/injection, vehicle: Klucel (hydroxypropylcellulose) (HPC)) and 95 % of control under setting [13].
Consider `CCCOC(=O)c1nc(N(CC2CCCCC2)C(=O)NC)sc1/N=C/c1ccccc1`, for which the T/C runs as follows: (dose: 9.0 mg/kg/injection, vehicle: saline with Tween-80) 96 % of control; (dose: 18.0 mg/kg/injection, vehicle: saline with Tween-80) 86 % of control; (dose: 36.0 mg/kg/injection, vehicle: saline with Tween-80) 86 % of control.
Take `CN(C)CCC(=O)C(=Cc1ccc(O)cc1)C(=O)CCN(C)C`: the T/C by setting is: under setting [5], 101 % of control; under setting [7], 97 % of control; under setting [8], 101 % of control; under setting [9], 97 % of control; under setting [11], 102 % of control.
In the case of `C=Cc1cc(OC)c2c(c1)c(=O)oc1c2cc(OC)c2c(O)ccc(C3OC(C(C)O)C(O)C3O)c21` (stereo not drawn), the T/C under setting [13] is 165 % of control.
Regarding `CN1CCN(Cc2nc3cccc4c3c([n+]2[O-])-c2ccccc2-4)CC1`, the T/C reads like this: under setting [4], 98 % of control; under setting [6], 99 % of control; under setting [1], 110 % of control; under setting [2], 106 % of control; under setting [10], 120 % of control.
Consider `Cn1c(=O)c(-c2ccccc2)[n+]([O-])c2ccccc21`, for which the T/C is 98 % of control under setting [6], 122 % of control under setting [1], 101 % of control under setting [2] and 94 % of control under setting [10].
`CC[C@](O)(C(=O)O)c1cc2n(c(=O)c1CO)Cc1cc3ccccc3nc1-2`: the T/C is 117 % of control (dose: 0.75 mg/kg/injection, vehicle: water); 154 % of control (dose: 1.5 mg/kg/injection, vehicle: water); 169 % of control (dose: 3.0 mg/kg/injection, vehicle: water).
In the case of `CC(=O)N(C)c1ccc(Nc2cc(C)[nH]c3ccc4ncnc4c23)cc1`, the T/C is 122 % of control (dose: 6.25 mg/kg/injection, vehicle: saline); 171 % of control and 178 % of control under setting [5]; 177 % of control and 198 % of control under setting [7]; 177 % of control and 184 % of control under setting [8].
For `COC(=O)C(Cc1ccc(O)cc1)NC(=O)C(Cc1ccccc1)NC(C)=O` (stereo not drawn) (Ac-Phe-Tyr-OMe; configuration not given here), the T/C reads like this: under setting [13], 92 % of control; (dose: 50.0 mg/kg/injection, vehicle: Klucel (hydroxypropylcellulose) (HPC)) 92 % of control; (dose: 100.0 mg/kg/injection, vehicle: Klucel (hydroxypropylcellulose) (HPC)) 92 % of control; (dose: 200.0 mg/kg/injection, vehicle: Klucel (hydroxypropylcellulose) (HPC)) 86 % of control.
In the case of `O=CN(SSN(C=O)C1CCCCC1)C1CCCCC1`, the T/C by setting is: under setting [4], 90 % of control; under setting [6], 106 % of control; under setting [1], 101 % of control; under setting [2], 89 % of control; under setting [10], 97 % of control.
Consider `Cc1cc(O)c2c(c1O)C(=O)C13C(=C2O)C(=O)C2C(O)C1C1C(O)C3C(=O)C3=C(O)c4c(O)cc(C)c(O)c4C(=O)C321` (stereo not drawn), for which the T/C reads like this: (dose: 0.19 mg/kg/injection, vehicle: saline with Tween-80) 109 % of control; (dose: 0.2 mg/kg/injection, vehicle: saline with Tween-80) 124 % of control; (dose: 0.39 mg/kg/injection, vehicle: saline with Tween-80) 114 % of control and 106 % of control; (dose: 0.78 mg/kg/injection, vehicle: saline with Tween-80) 117 % of control; (dose: 1.56 mg/kg/injection, vehicle: saline with Tween-80) 117 % of control.
